System: Lewis lung carcinoma cells
Assay: Local tumor growth (tumor volume) in Lewis lung carcinoma animal model
Assay type: in vivo, C57BL/6 mice
Details: metformin 200 mg/kg/day, fluvastatin 80 mg/kg/day
Protocol: Lewis lung carcinoma (LLC) model was established.
The cancer inhibiting effect of metformin and statin was examined. After the mice were sacrificed, tumor volume on the right thigh of the mice was measured to deteiiiiine local tumor growth.

CN(C)C(=N)N=C(N)N [metformin]
therapeutic effect on tumor volume compared with the sham group (no irradiation, day 7 to day 11, tumor volume on right thigh at day 21): did not exhibit any therapeutic effect | local tumor growth / tumor volume when combined with radiotherapy (with 40 Gy irradiation in two 20 Gy fractions (day 8, day 10), compared with RT alone, RT+M and RT+S, day 21): neither combining radiotherapy with metformin alone or with statin alone could suppress local tumor growth

— US20180169242A1, “PHARMACEUTICAL COMBINATION FOR CANCER TREATMENT AND THE THERAPEUTIC USE THEREOF” (Shiner Pharm Corp., priority 2016, published 2018)
